The record followed here is patent US11786532B2, “2-pyridones and methods of use thereof” (ALIGOS THERAPEUTICS, INC., priority 2020, dated 2023).

The assay deals with T1, human thyroid receptor beta ligand-binding domain (THR-beta) (Homo sapiens, UniProt P10828).
T1 sequence (P10828 217-461 limits assumed): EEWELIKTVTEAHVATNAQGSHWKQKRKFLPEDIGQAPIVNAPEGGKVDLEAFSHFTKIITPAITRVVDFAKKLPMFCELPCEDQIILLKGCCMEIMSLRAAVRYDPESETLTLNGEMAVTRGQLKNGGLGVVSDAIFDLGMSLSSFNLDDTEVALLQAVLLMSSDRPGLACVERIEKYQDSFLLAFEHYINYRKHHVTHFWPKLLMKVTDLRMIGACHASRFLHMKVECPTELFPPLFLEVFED
The assay can be described thus: THR Biochemical Assay (Assay 1): TR-FRET thyroid receptor beta coactivator assay. The conditions noted are these: TR-FRET SRC2-2 coactivator recruitment, GST-tagged THR-beta LBD 1 nM, 1 hr at rt; read-out: Assay 1 (EC50, THR-beta agonist activity). From the text: THR Biochemical Assay (Assay 1)
The TR-FRET thyroid receptor beta coactivator assay is to be used. The assay uses a terbium-labeled anti-GST antibody, a glutathione-S-transferase (GST) tagged human thyroid receptor, beta or alpha, ligand-binding domain (LBD), and a fluorescein labeled SRC2-2 coactivator peptide. The antibody interacts with the LBD, where the agonist will also bind, resulting in increased affinity for the SRC2-2 coactivator peptide causing energy transfer of the acceptor fluorophore and a FRET emission shift from 495 to 520 nm. The energy transfer is detected as an increase in the fluorescence emission of the fluorescein acceptor, and a decrease in the fluorescence emission of the terbium donor. The assay is to be performed in a 384-well black plate in a final volume of 20 μL. Serial dilution of various test agonists will be performed in DMSO (1% final DMSO concentration) and added to the test plate. Thyroid receptor beta LBD will usually be added to the plate at a final concentration of 1 nM, followed by the mixture of the fluorescein labeled SRC2-2 coactivator peptide, and the terbium-labeled anti-GST antibody at final concentrations of 200 nM and 2 nM respectively. The assay will often be incubated for 1 hr at rt protected from light. The TR-FRET will then be measured on a Victor multilabel reader (Perkin Elmer) using an excitation wavelength of 340 nm with emission filters of 495 nm and 520 nm. The assay will be quantified by expressing a ratio (520:495) of the intensities, and the resulting activation curves; EC50 values are to be generated using a sigmoidal dose response (variable slope) equation in GraphPad™ Prism 8.0.
(TR-FRET usually uses a lanthanide donor and a delayed reading to cut background.)
The EC50 is the midpoint of the concentration-response curve. As to `CC1CCc2c(Oc3c(Cl)cc(-n4nc(N)c(=O)[nH]c4=O)cc3Cl)ccc(=O)n21` (single isomer, unassigned) [Example 37, 6-amino-2-(3,5-dichloro-4-((3-methyl-5-oxo-1,2,3,5-tetrahydroindolizin-8-yl)oxy)phenyl)-1,2,4-triazine-3,5(2H,4H)-dione], the EC50 was less than 50 nM.
`CC1CCc2c(Oc3c(Cl)cc(-n4nc(N)c(=O)[nH]c4=O)cc3Cl)ccc(=O)n21` (single isomer, unassigned) [Example 38, 6-amino-2-(3,5-dichloro-4-((3-methyl-5-oxo-1,2,3,5-tetrahydroindolizin-8-yl)oxy)phenyl)-1,2,4-triazine-3,5(2H,4H)-dione]: the EC50 lay within 50 to 250 nM.
On to `CC(C)c1cc(Oc2c(Cl)cc(-n3nc(N)c(=O)[nH]c3=O)cc2Cl)c[nH]c1=O` [Compound 1, 6-amino-2-(3,5-dichloro-4-((5-isopropyl-6-oxo-1,6-dihydropyridin-3-yl)oxy)phenyl)-1,2,4-triazine-3,5(2H,4H)-dione], for which the EC50 is less than 50 nM.
On to `CC(C)c1cc(Oc2c(Cl)cc(-n3ncc(=O)[nH]c3=O)cc2Cl)c[nH]c1=O` [Compound 3, 2-(3,5-dichloro-4-((5-isopropyl-6-oxo-1,6-dihydropyridin-3-yl)oxy)phenyl)-1,2,4-triazine-3,5(2H,4H)-dione], for which the EC50 fell in the range of 50 to 250 nM.
With `CC(C)c1cc(Oc2c(Cl)cc(NC(=O)C(=O)O)cc2Cl)c[nH]c1=O` [Compound 4, 2-((3,5-dichloro-4-((5-isopropyl-6-oxo-1,6-dihydropyridin-3-yl)oxy)phenyl)amino)-2-oxoacetic acid], the EC50 lay within 50 to 250 nM.
For `CC(C)c1cc(Oc2c(Cl)cc(NC(=O)c3noc(=O)[nH]3)cc2Cl)c[nH]c1=O` [Compound 5, N-(3,5-dichloro-4-((5-isopropyl-6-oxo-1,6-dihydropyridin-3-yl)oxy)phenyl)-5-oxo-4,5-dihydro-1,2,4-oxadiazole-3-carboxamide], the concentration giving a half-maximal response (EC50) was less than 50 nM.
In the case of `CC(C)n1cc(Oc2c(Cl)cc(NC(=O)c3noc(=O)[nH]3)cc2Cl)ccc1=O` [Compound 6, N-(3,5-dichloro-4-((1-isopropyl-6-oxo-1,6-dihydropyridin-3-yl)oxy)phenyl)-5-oxo-4,5-dihydro-1,2,4-oxadiazole-3-carboxamide], the EC50 lay in the range of 50 to 250 nM.
In the case of `CC(C)n1cc(Oc2c(Cl)cc(-n3nc(C#N)c(=O)[nH]c3=O)cc2Cl)ccc1=O` [Compound 7, 2-(3,5-dichloro-4-((1-isopropyl-6-oxo-1,6-dihydropyridin-3-yl)oxy)phenyl)-3,5-dioxo-2,3,4,5-tetrahydro-1,2,4-triazine-6-carbonitrile], the concentration giving a half-maximal response (EC50) is less than 50 nM.
The value for `CC(C)n1cc(Oc2c(Cl)cc(-n3nc(N)c(=O)[nH]c3=O)cc2Cl)ccc1=O` [Compound 8, 6-amino-2-(3,5-dichloro-4-((1-isopropyl-6-oxo-1,6-dihydropyridin-3-yl)oxy)phenyl)-1,2,4-triazine-3,5(2H,4H)-dione] was 50 to 250 nM.
`Cc1cc(-n2nc(N)c(=O)[nH]c2=O)cc(C)c1Oc1c[nH]c(=O)c(C(C)C)c1` [Compound 9, 6-amino-2-(4-((5-isopropyl-6-oxo-1,6-dihydropyridin-3-yl)oxy)-3,5-dimethylphenyl)-1,2,4-triazine-3,5(2H,4H)-dione]: the EC50 lay in the range of 50 to 250 nM.
Consider `CC(C)c1cc(Oc2c(Cl)cc(-c3nn(C)c(=O)[nH]c3=O)cc2Cl)c[nH]c1=O` [Compound 10, 6-(3,5-dichloro-4-((5-isopropyl-6-oxo-1,6-dihydropyridin-3-yl)oxy)phenyl)-2-methyl-1,2,4-triazine-3,5(2H,4H)-dione], for which the EC50 lay within 50 to 250 nM.
As to `CN(C)c1cc(Oc2c(Cl)cc(-n3nc(N)c(=O)[nH]c3=O)cc2Cl)c[nH]c1=O` [Compound 13, 6-amino-2-(3,5-dichloro-4-((5-(dimethylamino)-6-oxo-1,6-dihydropyridin-3-yl)oxy)phenyl)-1,2,4-triazine-3,5(2H,4H)-dione], the EC50 is 250 to 1000 nM.
Consider `CC(C)c1cc(Oc2c(Cl)cc(-n3nc(N)c(=O)[nH]c3=O)cc2Cl)cn(C)c1=O` [Example 14, 6-amino-2-(3,5-dichloro-4-((5-isopropyl-1-methyl-6-oxo-1,6-dihydropyridin-3-yl)oxy)phenyl)-1,2,4-triazine-3,5(2H,4H)-dione], for which the EC50 was less than 50 nM.
As to `CC1CCc2c(Oc3c(Cl)cc(-n4nc(N)c(=O)[nH]c4=O)cc3Cl)c[nH]c(=O)c21` (centres unmarked) [Example 15, 6-amino-2-[3,5-dichloro-4-[(7-methyl-1-oxo-2,5,6,7-tetrahydrocyclopenta[c]pyridin-4-yl)oxy]phenyl]-1,2,4-triazine-3,5-dione], the EC50 was 250 to 1000 nM.
The value for `Cc1c(Oc2c(Cl)cc(-n3nc(N)c(=O)[nH]c3=O)cc2Cl)c[nH]c(=O)c1C(C)C` [Example 18, 6-amino-2-(3,5-dichloro-4-((5-isopropyl-4-methyl-6-oxo-1,6-dihydropyridin-3-yl)oxy)phenyl)-1,2,4-triazine-3,5(2H,4H)-dione] was less than 50 nM; that for `Cc1cc(Oc2c(Cl)cc(-n3nc(N)c(=O)[nH]c3=O)cc2Cl)cn(C(C)C)c1=O` [Example 19, 6-amino-2-(3,5-dichloro-4-((1-isopropyl-5-methyl-6-oxo-1,6-dihydropyridin-3-yl)oxy)phenyl)-1,2,4-triazine-3,5(2H,4H)-dione] was less than 50 nM; that for `CC(C)n1cc(Oc2c(Cl)cc(-n3nc(N)c(=O)[nH]c3=O)cc2Cl)cc(F)c1=O` [Example 22, 6-amino-2-(3,5-dichloro-4-((5-fluoro-1-isopropyl-6-oxo-1,6-dihydropyridin-3-yl)oxy)phenyl)-1,2,4-triazine-3,5(2H,4H)-dione] was 50 to 250 nM.
`CC(C)n1cc(Oc2c(Cl)cc(-n3nc(N)c(=O)[nH]c3=O)cc2Cl)cc(Cl)c1=O` [Example 23, 6-amino-2-(3,5-dichloro-4-((5-chloro-1-isopropyl-6-oxo-1,6-dihydropyridin-3-yl)oxy)phenyl)-1,2,4-triazine-3,5(2H,4H)-dione]: the EC50 lay in the range of 50 to 250 nM.
`Nc1nn(-c2cc(Cl)c(Oc3c[nH]c(=O)c(C4CCC4)c3)c(Cl)c2)c(=O)[nH]c1=O` [Example 24, 6-amino-2-(3,5-dichloro-4-((5-cyclobutyl-6-oxo-1,6-dihydropyridin-3-yl)oxy)phenyl)-1,2,4-triazine-3,5(2H,4H)-dione]: the EC50 was less than 50 nM.
The same measure for `Nc1nn(-c2cc(Cl)c(Oc3c[nH]c(=O)c(C(=O)NC4CC(F)(F)C4)c3)c(Cl)c2)c(=O)[nH]c1=O` [Example 27, 5-(4-(6-Amino-3,5-dioxo-4,5-dihydro-1,2,4-triazin-2(3H)-yl)-2,6-dichlorophenoxy)-N-(3,3-difluorocyclobutyl)-2-oxo-1,2-dihydropyridine-3-carboxamide]: 250 to 1000 nM.
Consider `CNC(=O)c1cc(Oc2c(Cl)cc(NC(=O)c3noc(=O)[nH]3)cc2Cl)c[nH]c1=O` [Example 28, N-(3,5-dichloro-4-((5-(methylcarbamoyl)-6-oxo-1,6-dihydropyridin-3-yl)oxy)phenyl)-5-oxo-4,5-dihydro-1,2,4-oxadiazole-3-carboxamide], for which the EC50 was in the range of 1000 to 25000 nM.
For the compound `Nc1nn(-c2cc(Cl)c(Oc3ccc(=O)n(C4CCC4)c3)c(Cl)c2)c(=O)[nH]c1=O` [Example 30, 6-amino-2-(3,5-dichloro-4-((1-cyclobutyl-6-oxo-1,6-dihydropyridin-3-yl)oxy)phenyl)-1,2,4-triazine-3,5(2H,4H)-dione], the EC50 was less than 50 nM.
For the compound `Nc1nn(-c2cc(Cl)c(Oc3ccc(=O)n(C4CC4)c3)c(Cl)c2)c(=O)[nH]c1=O` [Example 31, 6-amino-2-(3,5-dichloro-4-((1-cyclopropyl-6-oxo-1,6-dihydropyridin-3-yl)oxy)phenyl)-1,2,4-triazine-3,5(2H,4H)-dione], the EC50 is 50 to 250 nM.
The same measure for `CC(n1cc(Oc2c(Cl)cc(-n3nc(N)c(=O)[nH]c3=O)cc2Cl)ccc1=O)C(F)(F)F` (centres unmarked) [Example 32, 6-amino-2-(3,5-dichloro-4-((6-oxo-1-(1,1,1-trifluoropropan-2-yl)-1,6-dihydropyridin-3-yl)oxy)phenyl)-1,2,4-triazine-3,5(2H,4H)-dione]: 50 to 250 nM.
Take `Cc1cc(-n2nc(N)c(=O)[nH]c2=O)cc(C)c1Cc1c[nH]c(=O)c(C(C)C)c1` [Example 33, 6-amino-2-(4-((5-isopropyl-6-oxo-1,6-dihydropyridin-3-yl)methyl)-3,5-dimethylphenyl)-1,2,4-triazine-3,5(2H,4H)-dione]: the EC50 was 250 to 1000 nM.
The value for `CC1CCc2c(Oc3c(Cl)cc(-n4nc(C#N)c(=O)[nH]c4=O)cc3Cl)c[nH]c(=O)c21` (centres unmarked) [Example 34, 2-(3,5-Dichloro-4-((7-methyl-1-oxo-2,5,6,7-tetrahydro-1H-cyclopenta[c]pyridin-4-yl)oxy)phenyl)-3,5-dioxo-2,3,4,5-tetrahydro-1,2,4-triazine-6-carbonitrile] was 250 to 1000 nM.
